Laboratory results published in publication PMC6155811, “Effect of Phenolic Compounds from Elderflowers on Glucose- and Fatty Acid Uptake in Human Myotubes and HepG2-Cells” (Molecules : A Journal of Synthetic Chemistry and Natural …, 2017).

Assays:
[1] = tested on: human skeletal muscle cells; assay: Oleic acid uptake in human myotubes ([14C]-oleic acid); type: cell-based; conditions: 10 µM (highest concentration tested), 2 days, vs 0.1% DMSO control
Experimental: Figure 3 Effects of elderflower extracts, constituents and metabolites on oleic acid uptake in human myotubes. Myotubes were treated with (A) 12.5, 25 and 50 µg/mL of different crude extracts; (B,C) 0.1, 1 and 10 µM of elderflower phenolic compounds and metabolites for 2 days. Thereafter, the cells were exposed to [^14C]-oleic acid (37 kBq, 100 µM) for 4 h as described in Materials and Methods. A synthetic liver X receptor (LXR) agonist T0901317 (10 μM) was used as positive control. The figures show [^14C]-oleic acid uptake given as means ± SEM (n = 3) from separate experiments. * p < 0.05 vs. control (0.1% DMSO).
(§1) Satellite cells were isolated from the Musculus obliquus internus abdominis of four healthy donors, age 34.8 (±19) years, body mass index 22.9 (±2.7) kg/m^2, fasting glucose 4.9 (±0.6) mM, insulin, plasma lipids and blood pressure within normal range and no family history of diabetes. The muscle biopsies were obtained with informed consent and approval by the National Committee for Research Ethics (Oslo, Norway). The cells were cultured on 96-well CellBIND microplates DMEM-Glutamax (5.5 mM glucose), 2% fetal bovine serum, 2% Ultroser G, penicillin (100 units/mL), streptomycin (100 μg/mL) and amphotericin B (1.25 μg/mL) for proliferation. At 70%–80% confluence, the growth medium was replaced by DMEM-Glutamax (5.5 mM glucose) supplemented with 2% fetal bovine serum, penicillin (100 units/mL), streptomycin (100 μg/mL), amphotericin B (1.25 μg/mL) and insulin (25 pM), to induce differentiation. The cells were cultured in humidified 5% CO2 atmosphere at 37 °C, and the medium was changed every 2–3 days. Experiments were performed after 7 days of differentiation. 22-S-hydroxycholesterol (22-SHC) (10 µM) was used as positive control in the glucose uptake assay. The positive control used in the oleic acid assay is the synthetic liver X receptor (LXR) agonist T0901317 (10 µm).
(§2) Cells were exposed to test samples solved in 0.1% DMSO that were added directly to the medium for 2 days for myotubes and 24 h for HepG2 cells. Thereafter, cells were exposed to [^14C(U)]-glucose (1 μCi/mL, 100 μM) or [^14C]-oleic acid (37 kBq, 100 µM) for 4 h. A 96-well UniFilter-96 GF7B microplate (Perkin Elmer, Waltham, MA, USA) was mounted on top of the CellBIND plate (Corning Life-Sciences (Schiphol-Rijk, The Netherlands) and CO2 production was measured. After incubation the cells were washed twice with ice-cold phosphate buffered saline (PBS), lysed in 0.1 M NaOH, and radioactivity measured by liquid scintillation counting. The protein content of each sample was determined and glucose uptake was calculated using protein levels for standardization.

[2] = tested on: HepG2-cells; assay: Oleic acid uptake in HepG2-cells ([14C]-oleic acid); type: cell-based, human; conditions: highest concentration tested
Experimental: as §2, with “Thereafter, cells were exposed to [^14C(U)]-glucose (1 μCi/mL, 100 μM) or [^14C]-oleic acid (37 kBq, 100 µM) for 4 h.” left out, “The protein content of each sample was determined and glucose uptake was calculated using protein levels for standardization.” left out

[3] = target: T1, Porcine pancreatic α-amylase (Sus scrofa, UniProt P00690); assay: α-Amylase inhibitory activity; type: biochemical; conditions: phenolic compounds and metabolites; IC50 ± SD
T1 construct: purchased Sigma-Aldrich Chemie GmbH
T1 sequence (P00690 16-511): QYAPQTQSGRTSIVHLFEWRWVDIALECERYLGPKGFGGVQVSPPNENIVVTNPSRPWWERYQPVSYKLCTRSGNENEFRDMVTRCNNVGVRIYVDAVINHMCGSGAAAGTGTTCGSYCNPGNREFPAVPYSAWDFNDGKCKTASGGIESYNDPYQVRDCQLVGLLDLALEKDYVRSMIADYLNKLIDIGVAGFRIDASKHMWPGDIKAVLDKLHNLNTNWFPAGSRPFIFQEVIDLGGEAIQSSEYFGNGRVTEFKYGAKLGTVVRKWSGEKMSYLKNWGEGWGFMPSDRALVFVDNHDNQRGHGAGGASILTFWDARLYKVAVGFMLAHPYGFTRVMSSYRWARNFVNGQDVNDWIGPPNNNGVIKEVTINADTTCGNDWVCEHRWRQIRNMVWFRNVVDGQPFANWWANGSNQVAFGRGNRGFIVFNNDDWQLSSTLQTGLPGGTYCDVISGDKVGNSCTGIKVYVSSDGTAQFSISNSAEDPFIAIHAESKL
Experimental: The α-amylase assay was performed as described by Gella, et al.. Porcine pancreatic α-amylase (EC 3.2.1.1) was purchased from Sigma-Aldrich Chemie GmbH.

[4] = target: T2, 15-lipoxygenase (15-LO) from soybeans (Glycine max, UniProt P08170); assay: Inhibition of 15-lipoxygenase; type: biochemical, soybean; conditions: phenolic compounds and metabolites; IC50 ± SD; read-out: 15-LO IC50
T2 construct: 15-lipoxygenase (15-LO) from soybeans; purchased Sigma-Aldrich (St. Louis, MO, USA); host or cells: soybeans
T2 sequence (P08170 1-839): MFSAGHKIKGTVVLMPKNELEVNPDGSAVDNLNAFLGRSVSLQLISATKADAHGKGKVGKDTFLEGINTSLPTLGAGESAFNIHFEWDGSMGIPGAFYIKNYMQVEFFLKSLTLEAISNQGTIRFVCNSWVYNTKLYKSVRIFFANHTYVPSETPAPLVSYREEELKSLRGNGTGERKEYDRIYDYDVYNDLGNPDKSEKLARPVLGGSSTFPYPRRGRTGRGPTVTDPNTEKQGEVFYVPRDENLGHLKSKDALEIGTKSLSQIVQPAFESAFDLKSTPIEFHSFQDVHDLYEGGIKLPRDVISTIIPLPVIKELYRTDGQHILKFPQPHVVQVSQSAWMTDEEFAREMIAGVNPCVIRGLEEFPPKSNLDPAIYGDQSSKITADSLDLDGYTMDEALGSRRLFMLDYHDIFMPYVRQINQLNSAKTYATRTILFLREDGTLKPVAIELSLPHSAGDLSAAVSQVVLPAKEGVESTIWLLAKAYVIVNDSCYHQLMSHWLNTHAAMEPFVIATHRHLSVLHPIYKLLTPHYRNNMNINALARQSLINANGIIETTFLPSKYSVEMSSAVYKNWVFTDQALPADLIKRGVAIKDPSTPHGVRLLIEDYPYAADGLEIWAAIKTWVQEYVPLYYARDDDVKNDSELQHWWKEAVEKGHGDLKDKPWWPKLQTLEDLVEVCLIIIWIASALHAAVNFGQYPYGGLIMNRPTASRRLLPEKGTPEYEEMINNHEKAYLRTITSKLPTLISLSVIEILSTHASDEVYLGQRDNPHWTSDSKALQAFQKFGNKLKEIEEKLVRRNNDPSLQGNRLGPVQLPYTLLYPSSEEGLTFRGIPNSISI
Experimental: Test substances were dissolved in DMSO or water, and the assay was carried out as previously described.

[5] = target: T3, xanthine oxidase from bovine milk (Bos taurus, UniProt P80457); assay: Inhibition of xanthine oxidase; type: biochemical; conditions: phenolic compounds and metabolites; IC50 ± SD; read-out: XO IC50
T3 construct: xanthine oxidase from bovine milk; purchased Sigma-Aldrich (St. Louis, MO, USA); host or cells: bovine milk
T3 sequence (P80457 whole entry): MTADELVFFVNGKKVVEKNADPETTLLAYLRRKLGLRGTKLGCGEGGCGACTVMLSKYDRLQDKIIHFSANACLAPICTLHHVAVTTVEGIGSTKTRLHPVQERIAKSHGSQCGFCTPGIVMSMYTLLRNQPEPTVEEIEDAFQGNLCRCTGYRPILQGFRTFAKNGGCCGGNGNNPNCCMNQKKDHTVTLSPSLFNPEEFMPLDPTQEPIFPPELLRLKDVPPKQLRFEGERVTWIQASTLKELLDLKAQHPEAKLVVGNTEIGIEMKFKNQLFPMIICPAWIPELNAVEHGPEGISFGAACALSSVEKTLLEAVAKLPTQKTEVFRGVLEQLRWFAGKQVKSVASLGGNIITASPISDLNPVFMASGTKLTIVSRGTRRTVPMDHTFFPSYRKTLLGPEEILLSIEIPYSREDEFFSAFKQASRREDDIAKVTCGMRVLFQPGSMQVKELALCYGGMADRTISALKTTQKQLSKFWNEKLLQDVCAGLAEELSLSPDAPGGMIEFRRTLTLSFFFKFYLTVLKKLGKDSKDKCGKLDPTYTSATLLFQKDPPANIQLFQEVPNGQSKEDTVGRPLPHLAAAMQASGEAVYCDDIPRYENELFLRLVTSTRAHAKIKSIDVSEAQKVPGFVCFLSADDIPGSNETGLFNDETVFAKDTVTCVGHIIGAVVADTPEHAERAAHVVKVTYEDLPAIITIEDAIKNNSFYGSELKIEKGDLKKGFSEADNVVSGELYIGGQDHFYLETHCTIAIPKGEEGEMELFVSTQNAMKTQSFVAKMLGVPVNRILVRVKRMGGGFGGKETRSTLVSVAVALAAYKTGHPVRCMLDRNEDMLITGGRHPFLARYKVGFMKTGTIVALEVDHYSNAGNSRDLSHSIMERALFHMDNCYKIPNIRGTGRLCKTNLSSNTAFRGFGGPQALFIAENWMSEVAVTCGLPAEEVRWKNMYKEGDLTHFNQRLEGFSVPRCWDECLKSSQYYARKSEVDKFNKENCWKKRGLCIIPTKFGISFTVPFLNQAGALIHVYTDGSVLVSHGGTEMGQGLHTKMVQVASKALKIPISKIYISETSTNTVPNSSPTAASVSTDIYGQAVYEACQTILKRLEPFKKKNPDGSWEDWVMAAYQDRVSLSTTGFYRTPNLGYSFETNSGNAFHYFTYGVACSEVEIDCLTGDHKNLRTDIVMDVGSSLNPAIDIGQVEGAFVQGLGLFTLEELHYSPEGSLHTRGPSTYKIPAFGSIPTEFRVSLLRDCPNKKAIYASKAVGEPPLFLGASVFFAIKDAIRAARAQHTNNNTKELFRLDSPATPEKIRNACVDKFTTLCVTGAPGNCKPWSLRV
Experimental: The XO inhibitory activity with hypoxanthine as the substrate was carried out previously described. Test substances were dissolved in DMSO or water.

[6] = tested on: human skeletal muscle cells; assay: Glucose uptake in human myotubes ([14C(U)]-glucose); type: cell-based; conditions: 10 µM, 2 days, vs 0.1% DMSO control; mean ± SEM
Experimental: Figure 2 Effects of elderflower extracts, constituents and metabolites on glucose uptake in human myotubes. Myotubes were treated with (A) 12.5, 25 and 50 µg/mL of different crude extracts; (B,C) 0.1, 1 and 10 µM of elderflower phenolic compounds and metabolites for 2 days. Thereafter, the cells were exposed to [^14C(U)]-glucose (1 μCi/mL, 100 μM) for 4 h as described in the Materials and Methods section. 22-S-hydroxycholesterol (22-SHC) (10 μM) was used as positive control. The figures show [^14C(U)]-glucose uptake given as means ± standard error of the mean (SEM) (n = 3) from separate experiments. * p < 0.05 vs. control (0.1% dimethyl sulfoxide (DMSO)).
as §1, §2

[7] = tested on: HepG2-cells; assay: Glucose uptake in HepG2-cells ([14C(U)]-glucose); type: cell-based, human; conditions: 24 h, vs 0.1% DMSO control
Experimental: The human hepatoblastoma cell line HepG2 (HB-8065, ATCC, Manassas, VA, USA) was cultured in DMEM-Glutamax (5.5 mM glucose) supplemented with 10% fetal bovine serum, streptomycin (100 μg/mL) and penicillin (100 units/mL) at 37 °C in 5% CO2.
as §2

[8] = DPPH radical scavenging; conditions: IC50 ± SD; for IC50: phenolic compounds and metabolites
Experimental: Scavenging activity towards the DPPH radical was carried out as previously described. Test substances were dissolved in DMSO or water. Values were corrected for absorbance of the test substances.

IC50 [3] [µM] | IC50 [4] [µM] | IC50 [5] [µM] | IC50 [8] [µM] | DPPH IC50 ([8]; crude extracts) [µg/mL] | SMILES | increase in oleic acid uptake [1] | enhancement of oleic acid uptake [2] | increase in glucose uptake [6] | maximal increase in glucose uptake [7]
9.1 ± 1.1 | 106 ± 2.3 | 24.2 ± 5.3 | – | – | O=C(/C=C/c1ccc(O)c(O)c1)O[C@@H]1C[C@](O)(C(=O)O)C[C@@H](O)[C@H]1O [Chlorogenic acid] | 17.3% ± 2.5% | 25.6% ± 4.6% | – | –
3.6 ± 1.1 | 93.7 ± 3.7 | – | 10.6 ± 3.9 | – | O=c1c(O)c(-c2ccc(O)cc2)oc2cc(O)cc(O)c12 [Kaempferol] | 25.0% ± 3.0% | – | 39.1% ± 5.8% | 45.2% ± 2.6%
– | – | – | 9.3 ± 1.5 | 2.8 ± 0.3 | O=c1c(O)c(-c2ccc(O)c(O)c2)oc2cc(O)cc(O)c12 [Quercetin] | – | – | 37.1% ± 4.6% | 41.1% ± 3.2%
